Source: a compilation of properties of binary mixtures (doi:10.1021/acs.jced.0c00495)

Assay: xn = mol fraction of the nth substance listed
Conditions: 101.3 kPa

CCCCCCCCn1cc[n+](C)c1.F[B-](F)(F)F + Nc1ccccc1
speed of sound [m/s]
Conditions | x1 = 0.0996 | x1 = 0.1904 | x1 = 0.2853 | x1 = 0.3789 | x1 = 0.4955 | x1 = 0.5783 | x1 = 0.6966 | x1 = 0.7938 | x1 = 0.8958
293.15 K | 1640 | 1619 | 1595 | 1574 | 1553 | 1540 | 1526 | 1516 | –
298.15 K | – | – | 1580 | 1560 | 1539 | 1526 | 1512 | – | 1494
303.15 K | – | – | 1564 | 1545 | 1525 | 1513 | 1499 | 1488 | –
308.15 K | 1589 | – | 1549 | 1530 | 1511 | – | 1485 | 1476 | 1467
313.15 K | – | 1554 | 1534 | – | 1496 | 1485 | 1472 | 1463 | 1454
318.15 K | 1554 | 1538 | 1518 | – | 1483 | 1472 | 1459 | 1450 | 1441
323.15 K | – | – | 1502 | 1486 | 1469 | 1458 | 1446 | – | 1429

CCCCCC[n+]1ccn(C)c1.F[B-](F)(F)F + Nc1ccccc1
speed of sound [m/s]
Conditions | x1 = 0.0989 | x1 = 0.1792 | x1 = 0.2896 | x1 = 0.3924 | x1 = 0.5062 | x1 = 0.6042 | x1 = 0.6986 | x1 = 0.7974 | x1 = 0.8962
293.15 K | 1653 | – | 1618 | 1598 | 1579 | 1565 | – | – | 1539
298.15 K | 1636 | 1623 | 1603 | 1583 | – | – | 1541 | 1532 | 1526
303.15 K | – | 1606 | 1586 | 1568 | 1550 | 1537 | – | 1520 | 1513
308.15 K | 1601 | 1589 | 1571 | 1553 | 1536 | 1524 | 1515 | 1507 | 1501
313.15 K | – | 1572 | 1555 | 1539 | 1522 | 1510 | 1502 | 1494 | 1489
318.15 K | 1565 | 1556 | 1540 | 1525 | 1509 | – | – | 1482 | 1476
323.15 K | 1547 | – | 1525 | – | 1496 | 1485 | 1477 | 1470 | 1464
